Data published in patent US9012481B2, “Benzoarylureido compounds, and composition for prevention or treatment of neurodegenerative brain disease containing the same” (Korea Institute of Science and Technology, priority 2009, dated 2015).

Assays:
BV-2 cells = assay: Microscope analysis of cell shape, beta-amyloid treated BV-2 cells; type: cell-based; settings: 50 nM KHG25967 for 24 hours after 50 μM beta-amyloid for 2 hours
Description: BV-2 microglia cells (allotted from Pharmacology Division of Ajou University) were cultivated in DMEM (Dulbecco's Modified Eagle's Medium) supplemented with 5% fetal bovine serum (Invitrogen, Carlsbad, Calif., USA), sou/Ml penicillin (Invitrogen, Carlsbad, Calif., USA), and 50 μg/Ml streptomycin (Invitrogen, Carlsbad, Calif., USA) under the atmosphere condition with 5% CO2 and 95% air at 37° C. The medium was replaced once a day, the cells were plate-cultured in a density according to the scale of each experiment.
BV-2 cells were pre-treated with 50 μM of beta-amyloid, and 50 nM of KHG25967 compound was added to the beta-amyloid treated cells for 24 hours. For microscope analysis, BV-2 cells were used in 6-well plate at the density of 5×10^5 cells/well, for MTT analysis, BV-2 cells were used in 96-well plate at the density of 5×10^4 cells/well.
The obtained prevention effects of KHG25967 compound on toxicity induced by beta-amyloid in BV-2 cells were FIGS. 1A and 1b.

phospho-ERK1 = assay: Immunoblotting of phospho-ERK1 in beta-amyloid stimulated BV-2 cell culture; type: cell-based
Description: (§1) The beta-amyloid treated cells (6-well of 5×10^5 cells/3 Ml, allotted from Pharmacology Division of Ajou University) were collected, and washed with phosphate-buffered saline (PBS). After centrifugation, the cells were dissolved in 0.1 ml of RIPA buffer (containing 150 mM NaCl, 1% NP-40, 0.5% sodium deoxycholate, 0.1% SDS, 50 mM Tris-HCl, pH 7.4, 50 mM glyycerophosphate, 20 mM NaF, 20 mM EGTA, 1 mM DTT, 1 mM Na3VO4, and protease inhibitor) at 4° C. for 15 minutes by strong shaking. The cells were cultivated in ice for 10 minutes, the lysate was centrifuged at 14,000 rpm for 5 minutes. 20 μg of a protein obtained from the cell lysate was heated, and then, electrophoresed on 12% polyacrylamide gel under reduction condition. The cells were incubated in blocking buffer (20 mM Tris, pH 7.4-buffer saline containing 0.1% tween 20 containing 5% lipid-free dried milk) for 1 hour, to suppress non-specific binding. […]
To examine the effect of compound KHG25967 on phosphorylation of ERK (extracellular signal-regulated kinase) and expression of caspase 3 by beta-amyloid, a possible protein expression of ERK1/2 (extracellular signal-regulated kinase 1 & 2) and caspase 3 in BV-2cell culture stimulated with beta-amyloid were measured. […]

caspase 3 = assay: Immunoblotting of cleaved caspase 3 in beta-amyloid stimulated BV-2 cell culture; type: cell-based; settings: beta-amyloid together with KHG25967 (50 nM) compared to beta-amyloid only
Description: as §1, with “condition.” for “condition. The cells were incubated in blocking buffer (20 mM Tris, pH 7.4-buffer saline containing 0.1% tween 20 containing 5% lipid-free dried milk) for 1 hour, to suppress non-specific binding.”
To examine the effect of compound KHG25967 on phosphorylation of ERK (extracellular signal-regulated kinase) and expression of caspase 3 by beta-amyloid, a possible protein expression of ERK1/2 (extracellular signal-regulated kinase 1 & 2) and caspase 3 in BV-2cell culture stimulated with beta-amyloid were measured.
The activity of caspase 3 was measured as a cleavage at aspartic acid and serine by a stimulation, which is measured using anti-cleavage-caspase 3 antibody (Cell Signaling Technology Inc, Beverly, Mass., USA) through immunoblotting analysis. […]

[1] = test system: tumor necrosis factor-alpha; assay: ELISA of tumor necrosis factor-alpha in LPS-treated BV-2 cells; type: cell-based; settings: LPS 1 μg/ml for 2 hours, then 50 nM KHG25967 for 6 hours; compared to LPS only as 100%
Description: Lipopolysaccharide (LPS)-treated cells (6-well of 5×10^5 cells/3 Ml, Fluka, Sigma-Aldrich, St. Louis, Mo., USA) were collected, and washed with phosphate-buffered saline (PBS). The cells were centrifuged, and then dissolved in pro-prep lysis buffer at 4° C. Interleukin-1 beta and tumor necrosis factor-alpha in the cell lysis solution wherein the cells were dissolved were measured by enzyme-linked immunosorbent analysis plate (R&D systems inc, Minneapolis, Minn., USA). The absorbance at 450 nm was measured using microplate reader. In addition, cytokine was measured using a cytokine measuring system (R&D systems inc, Minneapolis, Minn., USA).
BV-2 cells were pre-treated with 1 μg/ml of LPS (Fluka, Sigma-Aldrich, St. Louis, Mo., USA) for 2 hours, and then, further treated with 50 nM KHG25967 for 6 hours. The changed amounts of cytokines of tumor necrosis factor-alpha and interleukin-1beta were measured from lysate solution where the cells were dissolved in cell lysate solution (Intron Biotechnology, Seoul, Korea).

interleukin-1beta = assay: LPS-induced interleukin-1beta in brain and serum of C57BL/6 mice; type: in vivo; settings: oral KHG25967 10 mg/kg or 20 mg/kg every day for 2 weeks, then LPS 10 mg/kg into brain, 6 hours
Description: (§2) The animal experiment was performed using C57BL/6 mice ([…], 12-14 weeks old, Harlan Sprague Dawley inc, Indianapolis, Ind., USA) by stereotaxis. The intracerebroventricular (ICV) injection was according to the intracerebroventricular injection system described in Craft et al., 2004b. The mice were grown in an accommodation for SPF (specific pathogen free) under 12 hours light/12 hours dark repeat, and supplied with water and feed as recommended by the accommodation for SPF. The study was reviewed and approved by the Institutional Animal Care and Use Committee (IACUC) of Asan Institute for Life Sciences, Asan Medical Center, which abides by the Institute of Laboratory Animal Resources (ILAR) guide.
(§3) The effect of KHG25967 on the change of pro-inflammatory cytokines was examined in vivo using 12-14 week old C57BL/6 mice. The control group was administered with PBS only for 2 weeks and then, further treated with PBS for 6 hours. The LPS group was administered with PBS only for 2 weeks and then, 10 mg/kg of LPS was administered into brain using streotaxis. The KHG25967 treated group was administered with 10 mg/kg or 20 mg/kg of KHG25967 every day for 2 weeks, and then, 10 mg/kg of LPS was administered into brain using streotaxis. […] The changes in the level of pro-inflammatory cytokines (interleukin-1beta and tumor necrosis factor-alpha) in the separated blood and brain were measured.

[2] = test system: tumor necrosis factor-alpha; assay: LPS-induced tumor necrosis factor-alpha in brain and serum of C57BL/6 mice; type: in vivo; settings: oral KHG25967 10 mg/kg or 20 mg/kg every day for 2 weeks, then LPS 10 mg/kg into brain, 6 hours
Description: as §2, §3

O=C(O)CNC(=O)Nc1nc2ccccc2s1 [KHG25967, 2-(3-benzo[d]thiazole-2-ylureido)acetic acid]
morphological characteristics of damaged cells (FIG. 1A) (BV-2 cells): alleviated
reduction of expression level of phospho-ERK1 (FIG. 2B) (phospho-ERK1; beta-amyloid together with KHG25967 (50 nM) compared to beta-amyloid only): 90%
increase of phospho-ERK1/2 (Western blot, FIG. 2A) (phospho-ERK1; culture treated with beta-amyloid in the presence of 50 nM KHG25967): considerably weakened
reduction of expression level of cleavage-caspase 3 (FIG. 2C) (caspase 3): 93%
suppression of tumor necrosis factor-alpha level (FIG. 3B) [1]: 61%
level of interleukin-1beta in blood (serum, FIG. 4C) (interleukin-1beta): no specific difference
decrease of interleukin-1beta level in brain (FIG. 4A) (interleukin-1beta; compared with LPS only as 100%): 55%
level of tumor necrosis factor-alpha in blood (serum, FIG. 4D) [2]: no specific difference
decrease of tumor necrosis factor-alpha level in brain (FIG. 4B) ([2]; compared with LPS only as 100%): 42%
